According to article PMC6024615, “Effect of Biliary Drainage on the Toxicity and Toxicokinetics of Amanita exitialis in Beagles” (Toxins, 2018):
Read-outs that look alike come from different tables or passages of the source. Marks after values point to notes of the source that are not given here.

Assay: Peptide toxins in the blood / toxicokinetics in beagles with biliary drainage
Type: in vivo, beagle dogs
Set-up: Dose normalized AUC (0–∞) / Dose normalized Cmax: unit not given here
Conditions: for T1/2: UPLC-ESI-MS/MS; for time at which toxins were detected in plasma after ingestion: beagles with biliary drainage, oral Amanita exitialis; for Vd/F: male, beagle, dog, read-out: Vz/F
Protocol: The study was approved by National Institute of Occupational Health and Poison Control review board for animal experiments. Twenty-four male beagles (age, 8–10 months; weight, 10 ± 1 kg) were obtained from Beijing Institute of Xieerxin Biology Resource (Beijing, China). They were randomly divided into four groups of six animals each: control, biliary drainage, and 20 and 60 mg/kg with biliary drainage groups. The biliary drainage operation was conducted in all groups barring the control group. The dogs were dressed in homemade underwear, coats, and Elizabeth circles for a week to ensure pre-experimental acclimatization (Figure S8a–c). After determining the baseline values for biochemical indicators, the dogs were fasted for 24 h but received water ad libitum. They were anesthetized by intravenous administration of pentobarbital sodium (3%, 1 mL/kg) during the surgery. A temperature of 38–39 °C was maintained with a warming mat. After skin preservation and sterilization, the abdominal cavity was opened through the central abdomen. The abdomen was explored and blunt dissection of the common bile duct was performed (Figure S8d). The common bile duct and its branches were ligated from the intestinal side. A 7.0-Fr drainage catheter (COOK, Bloomington, IN, USA) was percutaneously inserted into the gallbladder, and a medical drainage bag was connected to the drainage catheter coming out of the abdominal cavity. Each opened layer, including the peritoneum, abdominal wall muscle, and skin, was closed with suture. The operative incision was protected with sterile gauze and a bandage, and the dogs were dressed in homemade underwear, coats, and Elizabeth circles. The drainage bag was placed in the pocket of the coat (Figure S8e). After the anesthetic wore off, the dogs were placed in cages, and food and water were provided ad libitum. The operative incision was sterilized with iodophor twice a day until stitches were removed six days after surgery. The drainage bag was replaced every day. On the eighth day after surgery, the 20 and 60 mg/kg with biliary drainage groups were orally administered a lyophilized powder of Amanita exitialis in starch capsules. In control and bile drainage group, the beagle dogs were fed with empty capsules. Immediately after dosing, the animals were placed in their cages, and food and water were provided ad libitum. Dogs were sacrificed with an overdose of sodium pentobarbital at the end of the experiment. All procedures were performed according to the ethical standards of the National Institutes of Health Guide for Animal Welfare and approved by the Institutional Animal Care and Use Committee (EAWE-2017-005).
Peptide toxins in blood and urine samples were analyzed as described previously. Bile samples from Days 0–1, Days 1–2, Days 2–3, and Days 3–4 were collected and stored in medical drainage bags and the bile volume was recorded. Plasma and urine samples were stored at 2–8 °C until analysis for peptide toxins.
UPLC and MS/MS parameters were as described in our previous study. The limit of detection and limit of quantitation of each toxin in the bile were 0.03 mg/kg and 0.5 mg/kg, respectively.
Toxicokinetic parameters were described in our previous study. Measurement data are reported as mean ± standard deviation values and enumeration data are reported as percentage (%). […] SPSS 22.0 (IBM Corporation, Armonk, NY, USA, 2015) was used for statistical analysis. The criterion for statistical significance was p ≤ 0.05. Except for the biliary drainage operation, the animals and methods in our present study are in accordance with our previously published study. Thus, by directly comparing the data from this study with those from our published studies on Amanita exitialis-exposed beagles without biliary drainage, we can evaluate the impact of biliary drainage on the toxicity and toxicokinetics of Amanita exitialis in beagles.

[1] = 0 h after ingestion, 60 mg/kg with biliary drainage group
[2] = 20 mg/kg Amanita exitialis oral, biliary drainage, plasma, mean ± SD
[3] = 60 mg/kg Amanita exitialis oral, biliary drainage, plasma, mean ± SD
[4] = 0.25 h after ingestion, 20 mg/kg with biliary drainage group
[5] = 0.25 h after ingestion, 60 mg/kg with biliary drainage group
[6] = 0.5 h after ingestion, 20 mg/kg with biliary drainage group
[7] = 0.5 h after ingestion, 60 mg/kg with biliary drainage group
[8] = 1 h after ingestion, 20 mg/kg with biliary drainage group
[9] = 1 h after ingestion, 60 mg/kg with biliary drainage group
[10] = 1.5 h after ingestion, 20 mg/kg with biliary drainage group
[11] = 1.5 h after ingestion, 60 mg/kg with biliary drainage group
[12] = 2 h after ingestion, 20 mg/kg with biliary drainage group
[13] = 2 h after ingestion, 60 mg/kg with biliary drainage group
[14] = 3 h after ingestion, 20 mg/kg with biliary drainage group
[15] = 3 h after ingestion, 60 mg/kg with biliary drainage group
[16] = 4 h after ingestion, 20 mg/kg with biliary drainage group
[17] = 4 h after ingestion, 60 mg/kg with biliary drainage group
[18] = 5 h after ingestion, 20 mg/kg with biliary drainage group
[19] = 5 h after ingestion, 60 mg/kg with biliary drainage group
[20] = 6 h after ingestion, 20 mg/kg with biliary drainage group
[21] = 6 h after ingestion, 60 mg/kg with biliary drainage group
[22] = 8 h after ingestion, 20 mg/kg with biliary drainage group
[23] = 8 h after ingestion, 60 mg/kg with biliary drainage group
[24] = 10 h after ingestion, 20 mg/kg with biliary drainage group
[25] = 10 h after ingestion, 60 mg/kg with biliary drainage group
[26] = 12 h after ingestion, 20 mg/kg with biliary drainage group
[27] = 12 h after ingestion, 60 mg/kg with biliary drainage group
[28] = 24 h after ingestion, 20 mg/kg with biliary drainage group
[29] = 24 h after ingestion, 60 mg/kg with biliary drainage group
[30] = 36 h after ingestion, 20 mg/kg with biliary drainage group
[31] = 36 h after ingestion, 60 mg/kg with biliary drainage group
[32] = 48 h after ingestion, 20 mg/kg with biliary drainage group
[33] = 48 h after ingestion, 60 mg/kg with biliary drainage group

With `CC[C@H](C)[C@@H]1NC(=O)CNC(=O)[C@@H]2Cc3c([nH]c4cc(O)ccc34)[S@+]([O-])C[C@H](NC(=O)CNC1=O)C(=O)N[C@@H](CC(=O)O)C(=O)N1C[C@H](O)C[C@H]1C(=O)N[C@@H]([C@@H](C)[C@@H](O)CO)C(=O)N2` [β-amanitin] as the compound, how does the “detection rate of peptide toxins in blood” value (from here on “detection rate”) (0 h after ingestion, 20 mg/kg with biliary drainage group) read?
The value was 0%.

And the “detection rate” value [1]?
Its value is 0%.

What about the T1/2 [2] of the same compound?
Its T1/2 is 1.29 ± 1.07 h.

What about the “AUC (0–∞)” value [2] of the same compound?
Its value is 3.24 ± 1.49 µg·h/L.

And the CL/F [2]?
The CL/F was 10.7 ± 7 mL/min/kg.

And the Cmax [2]?
The Cmax was 0.85 ± 0.33 µg/L.

What about the “Dose normalized AUC (0–∞)” value [2] of the same compound?
The value was 179 ± 82.4.

And the “Dose normalized Cmax” value [2]?
Its value is 57 ± 18.3.

And the “MRT (0–∞)” value [2]?
The value was 3.83 ± 1.02 h.

And the Tmax [2]?
The Tmax was 1.63 ± 0.48 h.

What about the T1/2 [3] of the same compound?
The T1/2 was 1.54 ± 0.71 h.

And the “AUC (0–∞)” value [3]?
Its value is 15.75 ± 4.27 ^a,b µg/L × h.

What about the CL/F [3] of the same compound?
The CL/F was 5.5 ± 1.5 mL/min/kg.

And the Cmax [3]?
The Cmax was 5.18 ± 1.32 ^a,b µg/L.

What about the “Dose normalized AUC (0–∞)” value [3] of the same compound?
Its value is 222.3 ± 79.2.

What about the “Dose normalized Cmax” value [3] of the same compound?
The value was 96 ± 24.4.

And the “MRT (0–∞)” value [3]?
The value was 3.89 ± 0.46 h.

And the Tmax [3]?
The Tmax was 1.25 ± 0.29 h.

What about the “detection rate” value [4] of the same compound?
The value was 0%.

What about the “detection rate” value [5] of the same compound?
Its value is 50%.

What about the “detection rate” value [6] of the same compound?
The value was 33%.

And the “detection rate” value [7]?
Its value is 66%.

What about the “detection rate” value [8] of the same compound?
Its value is 100%.

And the “detection rate” value [9]?
Its value is 100%.

And the “detection rate” value [10]?
The value was 100%.

And the “detection rate” value [11]?
The value was 100%.

And the “detection rate” value [12]?
The value was 100%.

What about the “detection rate” value [13] of the same compound?
The value was 100%.

And the “detection rate” value [14]?
Its value is 100%.

What about the “detection rate” value [15] of the same compound?
The value was 100%.

And the “detection rate” value [16]?
Its value is 100%.

And the “detection rate” value [17]?
The value was 100%.

And the “detection rate” value [18]?
The value was 100%.

What about the “detection rate” value [19] of the same compound?
The value was 100%.

What about the “detection rate” value [20] of the same compound?
Its value is 83%.

And the “detection rate” value [21]?
Its value is 100%.

What about the “detection rate” value [22] of the same compound?
The value was 83%.

And the “detection rate” value [23]?
The value was 100%.

And the “detection rate” value [24]?
The value was 66%.

What about the “detection rate” value [25] of the same compound?
Its value is 100%.

What about the “detection rate” value [26] of the same compound?
The value was 33%.

What about the “detection rate” value [27] of the same compound?
Its value is 100%.

And the “detection rate” value [28]?
Its value is 0%.

And the “detection rate” value [29]?
Its value is 33%.

And the “detection rate” value [30]?
The value was 0%.

And the “detection rate” value [31]?
The value was 0%.

And the “detection rate” value [32]?
Its value is 0%.

What about the “detection rate” value [33] of the same compound?
The value was 0%.

What about the “time at which toxins were detected in plasma after ingestion” value of the same compound?
The value was 30 min.

And the Vd/F [2]?
The Vd/F was 0.78 ± 0.63 L/kg.

And the Vd/F [3]?
The Vd/F was 1.38 ± 0.59 L/kg.

With `CC[C@H](C)[C@@H]1NC(=O)CNC(=O)[C@@H]2Cc3c([nH]c4cc(O)ccc34)[S@+]([O-])C[C@H](NC(=O)CNC1=O)C(=O)N[C@@H](CC(N)=O)C(=O)N1C[C@H](O)C[C@H]1C(=O)N[C@@H]([C@@H](C)[C@@H](O)CO)C(=O)N2` [α-amanitin] as the compound, how does the “detection rate” value [1] read?
Its value is 0%.

What about the T1/2 [2] of the same compound?
The T1/2 was 1.08 ± 0.76 h.

What about the “AUC (0–∞)” value [2] of the same compound?
The value was 5.36 ± 3.17 µg·h/L.

And the CL/F [2]?
The CL/F was 14.2 ± 7.17 mL/min/kg.

And the Cmax [2]?
Its Cmax is 1.73 ± 0.58 µg/L.

What about the “Dose normalized AUC (0–∞)” value [2] of the same compound?
Its value is 138.9 ± 82.1.

What about the “Dose normalized Cmax” value [2] of the same compound?
Its value is 44 ± 15.1.

What about the “MRT (0–∞)” value [2] of the same compound?
The value was 3.55 ± 0.8 h.

What about the Tmax [2] of the same compound?
Its Tmax is 1.38 ± 0.48 h.

And the Vz/F [2]?
The Vz/F was 1.07 ± 0.31 L/kg.

And the T1/2 [3]?
Its T1/2 is 1.2 ± 0.58 h.

And the “AUC (0–∞)” value [3]?
Its value is 31.99 ± 9.65 ^a,* µg/L × h.

What about the CL/F [3] of the same compound?
The CL/F was 6 ± 1.83 mL/min/kg.

And the Cmax [3]?
The Cmax was 12.25 ± 3.54 ^a,* µg/L.

What about the “Dose normalized AUC (0–∞)” value [3] of the same compound?
The value was 238.2 ± 83.9.

And the “Dose normalized Cmax” value [3]?
The value was 86.1 ± 30.8.

What about the “MRT (0–∞)” value [3] of the same compound?
The value was 2.87 ± 0.43 h.

And the Tmax [3]?
The Tmax was 1.13 ± 0.25 h.

What about the “detection rate” value [4] of the same compound?
Its value is 0%.

What about the “detection rate” value [5] of the same compound?
The value was 0%.

And the “detection rate” value [6]?
The value was 33%.

And the “detection rate” value [7]?
Its value is 33%.

And the “detection rate” value [8]?
The value was 100%.

And the “detection rate” value [9]?
The value was 100%.

And the “detection rate” value [10]?
The value was 100%.

And the “detection rate” value [11]?
The value was 100%.

What about the “detection rate” value [12] of the same compound?
The value was 100%.

And the “detection rate” value [13]?
Its value is 100%.

What about the “detection rate” value [14] of the same compound?
Its value is 100%.

And the “detection rate” value [15]?
Its value is 100%.

And the “detection rate” value [16]?
Its value is 100%.

What about the “detection rate” value [17] of the same compound?
Its value is 100%.

What about the “detection rate” value [18] of the same compound?
Its value is 100%.

And the “detection rate” value [19]?
Its value is 100%.

What about the “detection rate” value [20] of the same compound?
The value was 100%.

And the “detection rate” value [21]?
The value was 100%.

And the “detection rate” value [22]?
The value was 50%.

And the “detection rate” value [23]?
The value was 50%.

And the “detection rate” value [24]?
The value was 50%.

What about the “detection rate” value [25] of the same compound?
The value was 50%.

And the “detection rate” value [26]?
The value was 17%.

And the “detection rate” value [27]?
The value was 33%.

What about the “detection rate” value [28] of the same compound?
Its value is 0%.

What about the “detection rate” value [29] of the same compound?
The value was 0%.

And the “detection rate” value [30]?
Its value is 0%.

What about the “detection rate” value [31] of the same compound?
The value was 0%.

What about the “detection rate” value [32] of the same compound?
Its value is 0%.

What about the “detection rate” value [33] of the same compound?
Its value is 0%.

And the “time at which toxins were detected in plasma after ingestion” value?
Its value is 30 min.

What about the Vd/F [3] of the same compound?
Its Vd/F is 0.68 ± 0.48 L/kg.
